Source: patent publication US7858738B2, “Synthetic human peptides and pharmaceutical compositions comprising them for the treatment of systemic lupus erythematosus” (Yeda Research and Development Co., Ltd., priority 2001, dated 2010)

Tests used:
[1] = tested on: (NZB×NZW)F1 mice; assay: Transfer of splenocytes of peptide-treated mice into (NZB×NZW)F1 mice with full-blown disease; type: in vivo; details: Table 14 (repeat experiment), recipients of 20 × 10^6 spleen cells from treated mice
Excerpt: It was of importance to investigate whether the beneficial effects of treatment with hCDR1, that are manifested by the down-regulation of disease manifestations, can be transferred by spleen cells of treated mice. To this end, we have performed an experiment in which 8-month old (NZB×NZW)F1 mice, that suffer already from the full-blown lupus-like disease, were divided into 2 groups. Group 1 was not treated and mice of group 2 were transferred with 20×10^6 spleen cells of 3-month old (NZB×NZW)F1 mice that were injected 3 times (s.c., every other day) with 300 μg/mouse of hCDR1. All splenocytes were injected intraperitoneally. Mice were tested for anti-dsDNA autoantibody production, disease manifestations, and were sacrificed 4 weeks after cell transfer.
The experiment was repeated a few more times using revhCDR1 as control.

[2] = tested on: BALB/c mice; assay: Treatment of 16/6Id-induced experimental SLE in BALB/c mice; type: in vivo; details: Table 12, 300 μg/mouse weekly
Description: (§1) Induction and treatment of experimental SLE. In order to induce experimental SLE, BALB/c mice were immunized with 1-2 μg of the human mAb 16/6Id and boosted 3 weeks later. For the prevention of experimental SLE, mice were given hCDR1 or hCDR3 (mCDR1 or revmCDR1 as control peptide in Example 12) intravenously (i.v.) or s.c. concomitant with the immunization, and were injected weekly thereafter for 5 weeks. Treatment of an established disease started three and a half months following disease induction with the 16/6Id, when clinical manifestations were already observed. In Example 12, mice received 10 weekly injections (i.v. or s.c.) of mCDR1 or revmCDR1 at a dose of 100 μg/mouse. Prevention and treatment of SLE-like disease in (NZB×NZW)F1 mice with the hCDR1 or mCDR1 peptide. For prevention of SLE, mice at the age of 2 months, before disease manifestations are observed, were injected s.c. with hCDR1 (or mCDR1 in Example 12, 250 μg/mouse) once a week for 10 weeks. To treat an established disease, mice at the age of 5-7 months were injected with hCDR1 (in Example 12, mCDR1 s.c., 250 μg/mouse) once a week for 10 weeks. Proliferative Responses. PBL were isolated from heparinized venous blood by Ficoll-Hypaque (Pharmacia) density-gradient centrifugation. All assays were performed, in triplicate, in flat-bottomed microtiter plates (Falcon, Becton Dickinson, Oxmard, Calif., USA) in which 2×10^5 PBL were cultured in enriched RPMI-1640 as described (Dayan et al., 2000). The PBL were exposed to various concentrations (0.1-40 μg/well) of the human anti-DNA 16/6Id mAb with and without the addition of the various CDR-based peptides at a concentration of at least 10-fold excess over that of the 16/6Id. Phytohemagglutinin (PHA; 2 μg/well) was used as a control for culture conditions at each experiment. The cultures were incubated in 7.5% CO2 at 37° C. for 6 days. Eighteen hours before the cells were harvested, [^3H]-thymidine (0.5μ Ci of 5 Ci/mmol) (Nuclear Research Center, Negev, Israel) was added to all cultures. Results are expressed as the mean thymidine incorporation in counts per minute (CPM) of triplicate culture±SD, or as stimulation index (S.I.; the ratio of mean CPM at the optimal concentration of the human 16/6Id to the mean CPM in the presence of medium alone). A S.I.≧2 was considered a positive response (Dayan et al., 2000). Inhibition (the ratio of mean CPM in the presence of the 16/6Id and various CDR-based peptides to the mean CPM with the 16/6Id without the CDR-based peptide) above 50% was considered positive. Induction of Cytokine Production. Mice that were immunized with the human 16/6Id mAb and either treated or not with the CDR-based peptide, were killed at different periods during or after treatment with the peptide. Splenocytes and lymph node cells (LNC) were harvested and incubated (5×10^6/ml) in the presence of the 16/6Id. Supernatants were collected after 48 and 72 h. Assessment of Cytokines in the Supernatants. Supernatants were collected 48 hours following the initiation of the cultures and stored at −70° C. Measurements of IL-2, IL-10, IFN-γ, and TNF-α were performed by ELISA by using the relevant standards, capture and detecting Abs (Pharmingen) according to the manufacturer's instructions. TGF-β was determined by an ELISA. Briefly, plates were coated with the recombinant human TGF-β1 sRIII/Fc chimera (R & D Systems Inc., Minneapolis, Minn., USA), and the second Ab used was the biotinylated anti-human TGF-β1 antibody (R & D Systems Inc.). The substrate solution used was TMB color Reagent (Helix Diagnostics, West Sacramento, Calif.), and enzyme activity was evaluated by using 570- and 630-nm filters. Detection of SLE-Associated Clinical and Pathological Manifestations. Proteinuria was measured semiquantitatively by using Combistix kit (Ames Division, Bayer Diagnostics, Newbury, U.K.). White blood cells (WBC, for leukopenia) were counted after a 10-fold dilution of heparinized blood in distilled water containing 1% acetic acid (vol/vol). […]

[3] = tested on: (NZB×NZW)F1 mice; assay: Treatment of established SLE-like disease in (NZB×NZW)F1 mice; type: in vivo; details: 300 μg/mouse, age 7 months
Description: as §1

[4] = tested on: MMP-9; assay: MMP-9 activity in sera of 16/6Id immunized BALB/c mice; type: in vivo; details: prevention and treatment protocols, 100 μg/mouse; FIG. 21B
Description: (§2) Induction and treatment of experimental SLE. In order to induce experimental SLE, BALB/c mice were immunized with 1-2 μg of the human mAb 16/6Id and boosted 3 weeks later. For the prevention of experimental SLE, mice were given hCDR1 or hCDR3 (mCDR1 or revmCDR1 as control peptide in Example 12) intravenously (i.v.) or s.c. concomitant with the immunization, and were injected weekly thereafter for 5 weeks. Treatment of an established disease started three and a half months following disease induction with the 16/6Id, when clinical manifestations were already observed. In Example 12, mice received 10 weekly injections (i.v. or s.c.) of mCDR1 or revmCDR1 at a dose of 100 μg/mouse. Prevention and treatment of SLE-like disease in (NZB×NZW)F1 mice with the hCDR1 or mCDR1 peptide. For prevention of SLE, mice at the age of 2 months, before disease manifestations are observed, were injected s.c. with hCDR1 (or mCDR1 in Example 12, 250 μg/mouse) once a week for 10 weeks. To treat an established disease, mice at the age of 5-7 months were injected with hCDR1 (in Example 12, mCDR1 s.c., 250 μg/mouse) once a week for 10 weeks. Proliferative Responses. PBL were isolated from heparinized venous blood by Ficoll-Hypaque (Pharmacia) density-gradient centrifugation. […] Results are expressed as the mean thymidine incorporation in counts per minute (CPM) of triplicate culture±SD, or as stimulation index (S.I.; the ratio of mean CPM at the optimal concentration of the human 16/6Id to the mean CPM in the presence of medium alone). […] TGF-β was determined by an ELISA. […] The substrate solution used was TMB color Reagent (Helix Diagnostics, West Sacramento, Calif.), and enzyme activity was evaluated by using 570- and 630-nm filters. […] Proteinuria was measured semiquantitatively by using Combistix kit (Ames Division, Bayer Diagnostics, Newbury, U.K.). White blood cells (WBC, for leukopenia) were counted after a 10-fold dilution of heparinized blood in distilled water containing 1% acetic acid (vol/vol). […]

[5] = tested on: MMP-3; assay: MMP-3 levels in sera of 16/6Id immunized BALB/c mice (Western blot); type: in vivo; details: prevention and treatment protocols, 100 μg/mouse; FIG. 21A
Description: as §2, with “peptide.” for “peptide. For prevention of SLE, mice at the age of 2 months, before disease manifestations are observed, were injected s.c. with hCDR1 (or mCDR1 in Example 12, 250 μg/mouse) once a week for 10 weeks. To treat an established disease, mice at the age of 5-7 months were injected with hCDR1 (in Example 12, mCDR1 s.c., 250 μg/mouse) once a week for 10 weeks. Proliferative Responses. PBL were isolated from heparinized venous blood by Ficoll-Hypaque (Pharmacia) density-gradient centrifugation.”, “U.K.).” for “U.K.). White blood cells (WBC, for leukopenia) were counted after a 10-fold dilution of heparinized blood in distilled water containing 1% acetic acid (vol/vol).”

[6] = tested on: MMP-9; assay: MMP-9 activity in sera of (NZB×NZW)F1 mice (gel zymography); type: in vivo; details: treatment of sick mice; FIG. 20B right
Description: as §1, with “A S.I.≧2 was considered a positive response (Dayan et al., 2000). Inhibition (the ratio of mean CPM in the presence of the 16/6Id and various CDR-based peptides to the mean CPM with the 16/6Id without the CDR-based peptide) above 50% was considered positive. Induction of Cytokine Production. Mice that were immunized with the human 16/6Id mAb and either treated or not with the CDR-based peptide, were killed at different periods during or after treatment with the peptide. Splenocytes and lymph node cells (LNC) were harvested and incubated (5×10^6/ml) in the presence of the 16/6Id. Supernatants were collected after 48 and 72 h. Assessment of Cytokines in the Supernatants. Supernatants were collected 48 hours following the initiation of the cultures and stored at −70° C. Measurements of IL-2, IL-10, IFN-γ, and TNF-α were performed by ELISA by using the relevant standards, capture and detecting Abs (Pharmingen) according to the manufacturer's instructions.” left out, “Briefly, plates were coated with the recombinant human TGF-β1 sRIII/Fc chimera (R & D Systems Inc., Minneapolis, Minn., USA), and the second Ab used was the biotinylated anti-human TGF-β1 antibody (R & D Systems Inc.).” left out, “Detection of SLE-Associated Clinical and Pathological Manifestations.” left out

[7] = tested on: PBL of SLE patients; assay: Proliferative response of PBL of SLE patients to the human 16/6Id mAb; type: cell-based; details: PBL of one SLE patient; FIG. 7; reversed murine peptides as controls
Description: as §1

Row | Sequence | I.C.D ± SEM ([1]; non-treated 2.3 ± 0.26) | Proteinuria g/L ± SEM ([1]; non-treated 10.9 ± 3.05) [g/L] | Anti-dsDNA antibodies 1:1250, Mean ± SD ([2]; 16/6Id alone 0.47 ± 0.3) | Proteinuria g/l, Mean ± SD ([2]; 16/6Id alone 0.58 ± 0.34) [g/L] | Anti-16/6 Id antibodies 1:10000, Mean ± SD ([2]; 16/6Id alone 0.89 ± 0.1) | Intensity of ICD in kidneys, Mean ± SD ([2]; 16/6Id alone 1.6 ± 0.55) | WBC/mm^3, Mean ± SD ([2]; 16/6Id alone 2800 ± 300) | Proteinuria g/L ± SEM ([3]; following treatment No 5, untreated 2.65 ± 1.76) [g/L] | Proteinuria g/L ± SEM ([3]; following treatment No 7, untreated 3.89 ± 2.73) [g/L] | Proteinuria g/L ± SEM ([3]; following treatment No 9, untreated 7.55 ± 3.95) [g/L] | MMP-9 activity in sera [4] | levels of MMP-3 in sera [5] | activity of MMP-9 in the sera [6] | inhibition of the proliferative responses of PBL to human 16/6Id mAb [7]
1 | GIWEEGKGPPQRIWSWYYG (Synthetic peptide prepared in the reversed order of SEQ ID NO 6.) [revhCDR1, control peptide synthesized in the reversed order of hCDR1, reference compound] | 1.7 ± 0.23 | 5.38 ± 2.34 | 0.35 ± 0.3 | 0.8 ± 0.3 | 0.95 ± 0.13 | 0.85 ± 0.75 | 4180 ± 831 /mm^3 | 6.94 ± 2.53 | 6.76 ± 2.91 | 5.99 ± 3.08 | – | – | – | –
2 | GIWELSKEPSQKVWQMYYGT (Synthetic peptide prepared in the reversed order of SEQ ID NO 1.) [revmCDR1, control peptide synthesized in the reversed order of mCDR1] | – | – | – | – | – | – | – | – | – | – | did not affect | did not affect | not | failed to inhibit significantly
